Test results published in patent publication US9521847B2, “Synergistic weed control from applications of pyridine carboxylic acid herbicides and synthetic auxin herbicides and/or auxin transport inhibitors” (Dow AgroSciences LLC, priority 2014, dated 2016).
Where two headings read alike, the source gives them in different places.

Key:
[1] = system: velvetleaf (Abutilon theophrasti, ABUTH); experiment: Greenhouse postemergence trial, % visual injury; format: in vivo; conditions: for % visual injury Obs: 5 g ae/ha alone, 20-22 d
[2] = system: nutsedge (Cyperus esculentus, CYPES); experiment: Greenhouse postemergence trial, % visual injury; format: in vivo; conditions: for pest or weed control at 5 g/ha: Cyperus, post-emergence, 5 g ae/ha alone, 20-22 d, read-out: % visual injury Obs
[3] = system: wild buckwheat (Polygonum convolvulus, POLCO); experiment: Greenhouse postemergence trial, % visual injury; format: in vivo; conditions: for % visual injury Obs: 5 g ae/ha alone, 20-22 d
[4] = system: grain sorghum (Sorghum vulgare, SORVU); experiment: Greenhouse postemergence trial, % visual injury; format: in vivo; conditions: for % visual injury Obs: 5 g ae/ha alone, 20-22 d
[5] = system: common chickweed (Stellaria media, STEME); experiment: Greenhouse postemergence trial, % visual injury; format: in vivo; conditions: 5 g ae/ha alone; 20-22 d
[6] = system: Canadian thistle (CIRAR, Cirsium arvense); experiment: Greenhouse postemergence trial, % visual injury; conditions: Cirsium arvense, post-emergence;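 note: plants sprayed at second to third true leaf stage, injury scored visually 20-22 d later against solvent-blank sprayed controls, 0 meaning no injury and 100 complete kill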
[7] = system: spring rape (Brassica napus, BRSNN); experiment: Greenhouse postemergence trial, % visual injury; conditions: Brassica napus, post-emergence
[8] = system: poinsettia (Euphorbia heterophylla, EPHHL); experiment: Greenhouse postemergence trial, % visual injury; conditions: for pest or weed control at 5 g/ha: Euphorbia heterophylla, post-emergence, read-out: % visual injury Obs, 5 g ae/ha alone, 20-22 d
[9] = system: wild pansy (Viola tricolor, VIOTR); experiment: Greenhouse postemergence trial, % visual injury; conditions: for pest or weed control at 5 g/ha: Viola tricolor, post-emergence, read-out: % visual injury Obs
[10] = system: winter wheat (TRZAW); experiment: Greenhouse postemergence trial, crop phytotoxicity (% visual injury); conditions: for % visual injury Obs: crop, 5 g ae/ha alone, 20-22 d
[11] = system: common lambsquarters (CHEAL, Chenopodium album L.); experiment: Greenhouse postemergence trial, % visual injury; format: in vivo; conditions: Chenopodium album, post-emergence; 5 g ae/ha alone; 20-22 d; read-out: % visual injury Obs
[12] = system: winter wheat (TRZAW); conditions: Triticum aestivum (winter wheat), in vivo
[13] = system: kochia (KCHSC, Kochia scoparia); experiment: Greenhouse postemergence trial, % visual injury; format: in vivo
Method: Following the protocol in Example 1, compound 1 and compound 2 were combined with 2,4 D EHE (EC) and applied to kochia (KCHSC, Kochia scoparia) and the phytotoxicity of the herbicidal compositions was measured.
Following the protocol in Example 1, compound 1 (EC) and Compound 2 (SC) were combined with diflufenzopyr and applied to kochia (Kochia scoparia, KCHSC) and the phytotoxicity of the herbicidal composition was measured.

[14] = system: sunflower (Helianthus annus, HELAN); experiment: Greenhouse postemergence trial, % visual injury; format: in vivo
[15] = system: ivyleaf morningglory (Ipomoea hederacea, IPOHE); experiment: Greenhouse postemergence trial, % visual injury
[16] = system: maize (ZEAMX); experiment: Greenhouse postemergence trial, crop phytotoxicity (% visual injury)
[17] = system: common rice (ORYSA); experiment: as above
[18] = system: pigweed (AMARE, Amaranthus retroflexus); experiment: Greenhouse postemergence trial, % visual injury; format: in vivo; conditions: Amaranthus retroflexus, post-emergence; 5 g ae/ha alone; 20-22 d; read-out: % visual injury Obs
[19] = read-out: % visual injury (Obs)

Row | Structure (SMILES) | % visual injury Obs [1] | pest or weed control at 5 g/ha [2] | % visual injury Obs [3] | % visual injury Obs [4] | % visual injury Obs [5] | pest or weed control at 5 g/ha ([6]; read-out: % visual injury Obs) | plant injury at 5 g/ha ([7]; read-out: % visual injury Obs) | pest or weed control at 5 g/ha [8] | pest or weed control at 5 g/ha [9] | % visual injury Obs [10] | also measured
1 | Nc1c(F)c(-c2ccc3ccoc3c2)nc(C(=O)O)c1Cl [compound 10] | 15% | 5% | 10% | 5% | 70% | 15% | 15% | 75% | 25% | 5% | –
2 | COc1c(N)nc(-c2ccc3sccc3c2)nc1C(=O)O [compound 11] | – | 0% | 10% | 5% | 40% | 5% | 10% | 25% | 10% | 10% | –
3 | COC(=O)c1nc(-c2ccc3cc[nH]c3c2F)c(F)c(/N=C/N(C)C)c1Cl [compound 13] | 0% | 0% | 25% | – | 50% | 10% | – | 75% | 25% | – | pest or weed control at 5 g/ha [11]: 60%
4 | Nc1c(F)c(-c2ccc3cc[nH]c3c2)nc(C(=O)O)c1Cl [compound 16] | – | – | – | – | – | – | – | – | – | – | % visual injury (Obs) ([2]; compound 16 5 g ae/ha): 25%; % visual injury (Obs) ([4]; compound 16 5 g ae/ha): 13%; % visual injury (Obs) [12]: 0%; pest or weed control at 5 g/ha [6, 19]: 20%; plant injury at 5 g/ha [7, 19]: 60%; % visual injury (Obs) ([9]; compound 16 5 g ae/ha): 25%
5 | O=C(O)COc1ccc(Cl)cc1Cl [2,4-D DMA, 2,4-D-dimethylammonium] | – | – | – | – | – | – | – | – | – | – | % visual injury (Obs) ([13]; 2,4-D DMA 400 g ae/ha): 10%; % visual injury (Obs) ([1]; 2,4-D DMA 400 g ae/ha): 75%; % visual injury (Obs) ([2]; 2,4-D DMA 400 g ae/ha): 30%; % visual injury (Obs) ([14]; 2,4-D DMA 400 g ae/ha): 80%; pest or weed control at 400 g/ha ([6]; read-out: % visual injury (Obs), 2,4-D DMA 400 g ae/ha): 70%; plant injury at 400 g/ha [7, 19]: 85%; % visual injury (Obs) ([9]; 2,4-D DMA 400 g ae/ha): 65%; % visual injury (Obs) ([15]; 2,4-D DMA 400 g ae/ha): 80%; % visual injury (Obs) ([10]; 2,4-D DMA 400 g ae/ha): 0%; % visual injury (Obs) ([16]; 2,4-D DMA 400 g ae/ha): 0%; % visual injury (Obs) ([17]; 2,4-D DMA 400 g ae/ha): 0%
6 | O=C(O)CCCOc1ccc(Cl)cc1Cl [2,4-DB DMA, 4-DB-dimethylammonium (2,4-DB DMA)] | – | – | – | – | – | – | – | – | – | – | % visual injury (Obs) ([13]; 2,4-DB DMA 400 g ae/ha): 10%; % visual injury (Obs) ([2]; 2,4-DB DMA 400 g ae/ha): 0%; % visual injury (Obs) ([3]; 2,4-DB DMA 400 g ae/ha): 60%; pest or weed control at 400 g/ha ([6]; read-out: % visual injury (Obs), 2,4-DB DMA 400 g ae/ha): 40%; plant injury at 400 g/ha [7, 19]: 70%; % visual injury (Obs) ([8]; 2,4-DB DMA 400 g ae/ha): 10%; % visual injury (Obs) ([15]; 2,4-DB DMA 400 g ae/ha): 70%; % visual injury (Obs) ([10]; 2,4-DB DMA 400 g ae/ha): 10%; % visual injury (Obs) ([16]; 2,4-DB DMA 400 g ae/ha): 0%; % visual injury (Obs) ([17]; 2,4-DB DMA 400 g ae/ha): 0%
7 | COC(=O)c1nc(-c2ccc3scnc3c2)c(F)c(N)c1Cl [compound 8] | 20% | – | – | – | 45% | 30% | 63% | 84% | 10% | 5% | pest or weed control at 5 g/ha [18]: 78%
8 | Nc1c(F)c(-c2cc(F)c3[nH]ccc3c2)nc(C(=O)O)c1Cl [compound 14] | 0% | – | – | 0% | – | 5% | 10% | 20% | 10% | 0% | pest or weed control at 5 g/ha [11]: 15%; % visual injury Obs ([14]; 5 g ae/ha alone, 20-22 d): 10%; % visual injury Obs ([16]; crop, 5 g ae/ha alone, 20-22 d): 0%
